Assay results reported in US20060148838A1, “Novel pyrrolodihydroisoquinolines useful in the treatment of cancer” (Altana Pharma AG, priority 2003, published 2006).

How the values were obtained:
[1] = system: NCl-H460 non-small cell lung cancer cells; experiment: Alamar Blue cell viability assay, anti-proliferative/cytotoxic activity; type: cell-based; details: 72 hours incubation, one range stated for all listed Examples, read-out: −log IC50 NCl-H460 (converted)
Description: The anti-proliferative/cytotoxic activity of the compounds described herein, can be tested on NCl-H460 non-small cell lung cancer cells using the Alamar Blue cell viability assay (described in O'Brien et al. Eur J Biochem 267, 5421-5426, 2000). The compounds are dissolved as 20 mM solutions in dimethylsulfoxide (DMSO) and subsequently diluted in semi-logarithmic steps. DMSO dilutions are further diluted 1:100 into Dulbecco's modified Eagle's medium (DMEM) containing 10% fetal calf serum to a final concentration twice as much as the final concentration in the test. NCl-460 cells are seeded into 96 well flat bottom plates at a density of 4000 cells per well in a volume of 50 μl per well. 24 hours after seeding the 50 μl each of the compound dilutions in DMEM medium are added into each well of the 96 Well plate. Each compound dilution is tested as quadruplicates. Wells containing untreated control cells are filled with 50 μl DMEM medium containing 1% DMSO. The cells are then incubated with the substances for 72 hours at 37° C. In a humified atmosphere containing 5% carbon dioxide. To determine the viability of the cells, 10 μl of an Alamar Blue solution (Biosource) are added and the fluorescence is measured at an extinction of 544 nm and an emission of 590 nm. For the calculation of cell viability the emission value from untreated cells is set to 100% viability and the emission rates of treated cells are set in relation to the values of untreated cells. Viabilities are expressed as % values.
The corresponding IC50 values of the compounds for anti-proliferative/cytotoxic activity are determined from the concentration-effect curves.
Representative advantageous IC50 values for anti-proliferation/cytotoxicity determined for the compounds mentioned and numbered as Examples in the examples above follow from the following table A, in which the numbers of the compound correspond to the numbers of the examples.

Row | SMILES | melting point [°C] | IC50 [1] [µM]
1 | COc1cc2c(cc1OC)-c1c(C(=O)NC(C)C)c(-c3cc(C)c(O)c(C)c3)c(C)n1CC2 [Example 30, 2-(4-Hydroxy-3,5-dimethyl-phenyl)-8,9-dimethoxy-3-methyl-5,6-dihydro-pyrrolo[2,1-a]isoquinoline-1-carboxylic acid isopropylamide] |  | 0.398 to 3.16
2 | CCOC(=O)c1c(-c2cc(C)c(O)c(C)c2)c(C)n2c1-c1cc(F)c(OC)cc1CC2 [Example 21, 9-Fluoro-2-(4-hydroxy-3,5-dimethyl-phenyl)-8-methoxy-3-methyl-5,6-dihydro-pyrrolo[2,1-a]isoquinoline-1-carboxylic acid ethyl ester] |  | 0.398 to 3.16
3 | COc1cc2c(cc1OC)-c1c(C(N)=O)c(-c3cc(C)c(O)c(C)c3)c(C)n1CC2 [Example 33, 2-(4-Hydroxy-3,5-dimethyl-phenyl)-8,9-dimethoxy-3-methyl-5,6-dihydro-pyrrolo[2,1-a]isoquinoline-1-carboxylic acid amide] | 229 to 231 | 
4 | CCOC(=O)c1c(-c2cccc(N(C)C)c2)c(C)n2c1-c1cc(OC)c(OC(F)F)cc1CC2 [Example 10, 8-(1,1-Difluoro-methoxy)-2-(3-dimethylamino-phenyl)-9-methoxy-3-methyl-5,6-dihydro-pyrrolo[2,1-a]isoquinoline-1-carboxylic acid ethyl ester] |  | 0.398 to 3.16
5 | CCOC(=O)c1c(-c2cc(OC)c(OC)c(OC)c2)c(C)n2c1-c1cc(OC)c(OC(F)F)cc1CC2 [Example 8, 8-(1,1-Difluoro-methoxy)-9-methoxy-3-methyl-2-(3,4,5-trimethoxy-phenyl)-5,6-dihydro-pyrrolo[2,1-a]isoquinoline-1-carboxylic acid ethyl ester] | 155 | 
6 | CNC(=O)c1c(-c2cc(C)c(O)c(C)c2)c(C)n2c1-c1cc(OC)c(OC)cc1CC2 [Example 32, 2-(4-Hydroxy-3,5-dimethyl-phenyl)-8,9-dimethoxy-3-methyl-5,6-dihydro-pyrrolo[2,1-a]isoquinoline-1-carboxylic acid methylamide] | 281 to 283 | 
7 | CCOC(=O)c1c(-c2cc(C)c(O)c(C)c2)c(C)n2c1-c1cc(C)c(OC)cc1CC2 [Example 23, 2-(4-Hydroxy-3,5-dimethyl-phenyl)-8-methoxy-3,9-dimethyl-5,6-dihydro-pyrrolo[2,1-a]isoquinoline-1-carboxylic acid ethyl ester] | 179 to 181 | 
8 | CCOC(=O)c1c(-c2cc(C)c(O)c(C)c2)c(C)n2c1-c1cc(OC(F)F)c(OC)cc1CC2 [Example 5, 9-(1,1-Difluoro-methoxy)-2-(4-hydroxy-3,5-dimethyl-phenyl)-8-methoxy-3-methyl-5,6-dihydro-pyrrolo[2,1-a]isoquinoline-1-carboxylic acid ethyl ester] | 152 to 155 | 0.398 to 3.16
9 | CCOC(=O)c1c(-c2cc(C)c(O)c(C)c2)c(C)n2c1-c1cc(OC)c(OC(F)F)cc1CC2 [Example 9, 8-(1,1-Difluoro-methoxy)-2-(4-hydroxy-3,5-dimethyl-phenyl)-9-methoxy-3-methyl-5,6-dihydro-pyrrolo[2,1-a]isoquinoline-1-carboxylic acid ethyl ester] | 126 to 128 | 0.398 to 3.16
10 | CCNC(=O)c1c(-c2cc(C)c(O)c(C)c2)c(C)n2c1-c1cc(OC)c(OC)cc1CC2 [Example 35, 2-(4-Hydroxy-3,5-dimethyl-phenyl)-8,9-dimethoxy-3-methyl-5,6-dihydro-pyrrolo[2,1-a]isoquinoline-1-carboxylic acid ethylamide] | 242 to 244 | 
11 | CCOC(=O)c1c(-c2cc(C)c(O)c(C)c2)c(C)n2c1-c1cc(OC)c(OC)cc1C(C)C2 (racemic) [Example 2, (6RS)-2-(4-Hydroxy-3,5-dimethyl-phenyl)-8,9-dimethoxy-3,6-dimethyl-5,6-dihydro-pyrrolo[2,1-a]isoquinoline-1-carboxylic acid ethyl ester] |  | 0.398 to 3.16
12 | CCC(C)NC(=O)c1c(-c2cc(C)c(O)c(C)c2)c(C)n2c1-c1cc(OC)c(OC)cc1CC2 (centres unmarked) [Example 36, 2-(4-Hydroxy-3,5-dimethyl-phenyl)-8,9-dimethoxy-3-methyl-5,6-dihydro-pyrrolo[2,1-a]isoquinoline-1-carboxylic acid sec-butylamide] | 238 to 240 | 0.398 to 3.16
13 | CCOC(=O)c1c(-c2cccc3ccccc23)c(C)n2c1-c1cc(OC)c(OCCOC)cc1CC2 [Example 20, 9-Methoxy-8-(2-methoxy-ethoxy)-3-methyl-2-naphthalen-1-yl-5,6-dihydro-pyrrolo[2,1-a]isoquinoline-1-carboxylic acid ethyl ester] | 126 to 128 | 0.398 to 3.16
14 | CCOC(=O)c1c(-c2cccc(N(C)C)c2)c(C)n2c1-c1cc(Cl)c(OC)cc1CC2 [Example 16, 9-Chloro-2-(3-dimethylamino-phenyl)-8-methoxy-3-methyl-5,6-dihydro-pyrrolo[2,1-a]isoquinoline-1-carboxylic acid ethyl ester] |  | 0.398 to 3.16
15 | COc1cc2c(cc1OC)-c1c(C(=O)c3ccccc3)c(-c3cc(C)c(O)c(C)c3)c(C)n1CC2 [Example 26, 1-[2-(4-hydroxy-3,5-dimethyl-phenyl)-8,9-dimethoxy-3-methyl-5,6-dihydro-pyrrolo[2,1-a]isoquinolin-1-yl]-1-phenyl-methanone] | 194 to 196 | 
16 | COc1cc2c(cc1OC)-c1c(C(=O)N(C)C)c(-c3cc(C)c(O)c(C)c3)c(C)n1CC2 [Example 31, 2-(4-Hydroxy-3,5-dimethyl-phenyl)-8,9-dimethoxy-3-methyl-5,6-dihydro-pyrrolo[2,1-a]isoquinoline-1-carboxylic acid dimethylamide] | 259 to 261 | 
17 | CCOC(=O)c1c(-c2cc(C)c(O)c(C)c2)c(C)n2c1-c1c(cc(OC)c(OC)c1OC)CC2 [Example 7, 2-(4-Hydroxy-3,5-dimethyl-phenyl)-8,9,10-trimethoxy-3-methyl-5,6-dihydro-pyrrolo[2,1-a]isoquinoline-1-carboxylic acid ethyl ester] | 246 to 251 | 

Further lines, with some results ahead:

Row | melting point [°C] | SMILES | IC50 [1] [µM]
18 | 172 to 174 | CCOC(=O)c1c(-c2cc(OC)c(OC)c(OC)c2)c(C)n2c1-c1cc(Cl)c(OC)cc1CC2 [Example 15, 9-Chloro-8-methoxy-3-methyl-2-(3,4,5-trimethoxy-phenyl)-5,6-dihydro-pyrrolo[2,1-a]isoquinoline-1-carboxylic acid ethyl ester] | 
19 | 273 to 276 | COc1cc2c(cc1OC)-c1c(C(=O)NC3CCCCC3)c(-c3cc(C)c(O)c(C)c3)c(C)n1CC2 [Example 28, 2-(4-Hydroxy-3,5-dimethyl-phenyl)-8,9-dimethoxy-3-methyl-5,6-dihydro-pyrrolo[2,1-a]isoquinoline-1-carboxylic acid cyclohexyl amide] | 0.398 to 3.16
20 | 152 to 154 | CCOC(=O)c1c(-c2cc(OC)c(OC)c(OC)c2)c(C)n2c1-c1cc(OC)c(OCCOC)cc1CC2 [Example 19, 9-Methoxy-8-(2-methoxy-ethoxy)-3-methyl-2-(3,4,5-trimethoxy-phenyl)-5,6-dihydro-pyrrolo[2,1-a]isoquinoline-1-carboxylic acid ethyl ester] | 
21 | 254 to 256 | COc1cc2c(cc1OC)-c1c(C(=O)NC3CC3)c(-c3cc(C)c(O)c(C)c3)c(C)n1CC2 [Example 37, 2-(4-Hydroxy-3,5-dimethyl-phenyl)-8,9-dimethoxy-3-methyl-5,6-dihydro-pyrrolo[2,1-a]isoquinoline-1-carboxylic acid cyclopropylamide] | 
22 | 169 to 171 | CCOC(=O)c1c(-c2cc(C)c(O)c(C)c2)c(C)n2c1-c1cc(OC)c(OCCOC)cc1CC2 [Example 18, 2-(4-Hydroxy-3,5-dimethyl-phenyl)-9-methoxy-8-(2-methoxy-ethoxy)-3-methyl-5,6-dihydro-pyrrolo[2,1-a]isoquinoline-1-carboxylic acid ethyl ester] | 0.398 to 3.16
23 | 167 to 169 | CCOC(=O)c1c(-c2cc(C)c(O)c(C)c2)c(C)n2c1-c1cc(OC)c(Cl)cc1CC2 [Example 17, 8-Chloro-2-(4-hydroxy-3,5-dimethyl-phenyl)-9-methoxy-3-methyl-5,6-dihydro-pyrrolo[2,1-a]isoquinoline-1-carboxylic acid ethyl ester] | 
24 | 107 to 110 | CCOC(=O)c1c(-c2cccc(N(C)C)c2)c(C)n2c1-c1cc(OC(F)F)c(OC)cc1CC2 [Example 4, 9-(1,1-Difluoro-methoxy)-2-(3-dimethylamino-phenyl)-8-methoxy-3-methyl-5,6-dihydro-pyrrolo[2,1-a]isoquinoline-1-carboxylic acid ethyl ester] | 0.398 to 3.16
25 | 210 to 214 | COc1cc2c(cc1OC)-c1c(-c3ccccc3)c(-c3cc(C)c(O)c(C)c3)c(C)n1CC2 [Example 27, 4-(8,9-Dimethoxy-3-methyl-1-phenyl-5,6-dihydro-pyrrolo[2,1-a]isoquinolin-2-yl)-2,6-dimethyl-phenol] | 
